Experiment: Solubility (physico-chemical properties, Table 1)
Format: physicochemical
Conditions: solvents in which the compound is soluble

With `CC(C)=CCC12C(=O)OC1CC=C2CO` (stereo not shown) [Percyquinnin] the Solubility was “Methanol, DMSO”.

From patent US6596518B2, “Percyquinnin, a process for its production and its use as a pharmaceutical” (Aventis Pharma Deutschland GmbH, priority 2000, dated 2003)
